From US10072293B2, “Systems, models and methods for identifying and evaluating skin-active agents effective for treating dandruff/seborrheic dermatitis” (The Procter and Gamble Company, priority 2011, dated 2018)
“And” between values parts separate entries of the source, which are not always exact repeats. Identical values can stand only once.

Legend:
[1] = tested on: Human telomerized keratinocytes (tKC); test: C-map query with lipid metabolism / immune-inflammation dandruff gene signature, keratinocyte instances; type: cell-based
Source text: In a very specific embodiment, an instance consists of the rank ordered data for all of the probe sets on the Affymetrix HG-U133A2.0 GeneChip wherein each probe on the chip has a unique probe set IDentifier. The probe sets are rank ordered by the fold change relative to the controls in the same C-map batch (single instance/average of controls).
Individual experiments (referred to as batches) generally comprise 30 to 96 samples analyzed using Affymetrix GeneChip® technology platforms, containing 6 replicates of the vehicle control (e.g., DMSO), 2 replicate samples of a positive control that gives a strong reproducible effect in the cell type used, and samples of the test material/perturbagen. Replication of the test material is done in separate batches due to batch effects. In vitro testing was performed in 6-well plates to provide sufficient RNA for GeneChip® analysis (2-4 μg total RNA yield/well).
(§1) Human telomerized keratinocytes (tKC) were obtained from the University of Texas, Southwestern Medical Center, Dallas, Tex. tKC cells were grown in EpiLife® media with 1× Human Keratinocyte Growth Supplement (Invitrogen, Carlsbad, Calif.) on collagen I coated cell culture flasks and plates (Becton Dickinson, Franklin Lakes, N.J.). Keratinocytes were seeded into 6-well plates at 20,000 cells/cm^2 24 hours before chemical exposure. Human skin fibroblasts (BJ cell line from ATCC, Manassas, Va.) were grown in Eagle's Minimal Essential Medium (ATCC) supplemented with 10% fetal bovine serum (HyClone, Logan, Utah) in normal cell culture flasks and plates (Corning, Lowell, Mass.). BJ fibroblasts were seeded into 6-well plates at 12,000 cells/cm^2 24 hours before chemical exposure.
All cells were incubated at 37° C. in a humidified incubator with 5% CO2. At t=−24 hours cells were trypsinized from T-75 flasks and plated into 6-well plates in basal growth medium. At t=0 media was removed and replaced with the appropriate dosing solution as per the experimental design.

[2] = tested on: fibroblast and keratinocyte cell lines; test: C-map query with lipid-immune dandruff signature, whole database; type: cell-based, human; conditions: each agent tested at several concentrations
Description: as §1
Each agent was tested at several concentrations.

[3] = tested on: human 3-dimensional organotypic cultures; test: In vitro model of dandruff: organotypic skin cultures given IL-22 and IL-17A; type: cell-based; conditions: organotypic cultures treated with IL-22 and IL-17A
Source text: In some embodiments, the methods of the present invention may further comprise testing the selected candidate cosmetic agent, using in vitro assays and/or in vivo testing, to validate the activity of the agent and usefulness as a cosmetic agent. Any suitable in vitro test method can be used, including those known in the art, and most preferably in vitro models developed in accordance with the present invention. For example, MatTek human skin equivalent cultures or other skin equivalent cultures may be treated with one or a combination of perturbagens selected for mimicry of the skin condition of interest with respect to regulation of the genes constituting a physiological theme pattern for the skin condition of interest. The treated skin culture replicates the, for example, dandruff condition where it is treated with IL17 and IL22 in accordance with the instant invention, and perturbagens may be screened for their ability to shift the homeostatic equilibrium of the treated skin culture toward healthy skin, as determined by transcriptional analysis. Skin biopsy assays may also be used to evaluate candidate skin-active agents as anti-dandruff agents. In some embodiments, evaluation of selected agents using in vitro assays may reveal, confirm, or both, that one or more new candidate cosmetic agents may be used in conjunction with a known cosmetic agent (or a combination of known cosmetic agents) to regulate a skin condition of interest.
A great challenge in the identification of new therapeutics is the development of in vitro models that are predictive of clinical efficacy. Because no animal models of the dandruff condition are available, there is a need for a model with high fidelity to the internal disease state so that it recapitulates the key features of dandruff lesional skin in vivo. The challenge of developing a good in vitro model for skin conditions such as dandruff is complicated by the fact that the events that trigger the development of dandruff are poorly understood. Transcriptomic profiling work in dandruff lesional skin has provided many new clues, chief among them evidence for a Th-17 driven inflammatory process.
These substances include selenium sulfide, ZPT, ketoconazole, clobetasol propionate and the iron chelator 1,10-phenanthroline.
The in vitro disease simulation according to the invention produces a pattern of gene expression that strongly resembles dandruff lesional skin. Affymetrix U133A Plus 2 microarrays were used to evaluate the gene expression profile elicited by exposure of organotypic human skin cultures to a variety of proinflammatory cytokines individually and in combination, as set forth in FIG. 21A and FIG. 21B. […] This strongly supports that the simulation is producing a gene expression pattern that resembles the disease condition.

[4] = tested on: reconstituted human epidermis (RHE); test: Connectivity map linkage scores, inflammatory skin disorder signature (top 70 up / 70 down), RHE instances; type: cell-based; design: scale not given here
Source text: (§2) Gene expression data from five inflammatory skin disorders (acne, atopic dermatitis, dandruff, eczema and psoriasis) were collected from a clinical genomics study and published studies. The raw expression data were used to produce a rank-ordered list of most differentially regulated genes associated with inflammatory skin disorders.
(§3) The derived gene signature was used to query a provided database comprising gene expression data from clinical genomics studies of a widely different inflammatory skin disorders, published in vitro genomics studies of disparate inflammatory skin disorders, and genomics data from an internal in vitro model of dandruff inflammatory pathology (human organotypic, MatTek, cultures).

[5] = tested on: human keratinocytes (hKC); test: Connectivity map linkage scores, inflammatory skin disorder signature, hKC instances; type: cell-based
Source text: as §2
as §3, with “cultures). […] Thus, the internal model was validated as being useful for study of inflammatory cascades and other gene expression alterations associated with inflammatory skin disorders.” for “cultures).”

[6] = tested on: scalp skin of dandruff subjects; test: ZPT transcriptomics study: double-blind, vehicle-controlled shampoo treatment, scalp biopsy gene expression; type: in vivo, human; conditions: shampoo with 1% ZPT, 3 times a week for 3 weeks, week 3
Source text: 1) 31 healthy male subjects aged 18-75 were divided into two groups of 16 “non-dandruff” and 15 “dandruff” subjects, as defined by a published flake scoring procedure, adherent scalp flake score (ASFS). […] 2) In a double-blinded treatment study, 45 healthy male subjects (30 dandruff and 15 non-dandruff as defined by ASFS criteria, aged 18-50 years) were enrolled and were shampooed at the clinical site three (3) times a week for three (3) weeks with either a commercially available anti-dandruff shampoo with 1% ZPT (15 dandruff subjects) or the same formula without ZPT (15 dandruff and 15 non-dandruff subjects). Full thickness 2 mm biopsies were collected from all three groups at baseline and end of study. Total RNA was extracted from the biopsies and labeled for Affymetrix GeneChip® analysis. The synthesized target cRNA was hybridized to Affymetrix HG U133A microarrays. Statistically analyzed data were filtered by significance (p<0.05, Dandruff vs. Non-Dandruff; ZPT vs. vehicle treatments) to identify genes showing an increase or decrease in expression level, a standard bioinformatics approach. Methodology and Results of Study 1:
The subject's hair/scalp was washed by study personnel on clinical site 3×/week for 3 weeks. Full thickness 2 mm punch biopsies collected at baseline and end of study. […]

MCF7 = test: C-map query with lipid metabolism / immune-inflammation dandruff gene signature, MCF7 instances; conditions: MCF7, 10 μM

Q: With `CC(C)(C)C(=O)C(Oc1ccc(Cl)cc1)n1ccnc1` (centres unmarked) [Climbazole] as the molecule, how does the “Score (connectivity score)” value ([1]; 1 μM, 6hr (chip ID)) read?
A: −0.55

Q: And the “Score (connectivity score)” value ([1]; 10 μM, 24hr (chip ID))?
A: −0.67

Q: `S=[Se]=S` [selenium sulfide] was tested. Which “Linkage to lipid-immune dandruff gene signature” value [2] did it give?
A: not in the list of instances strongly linked to the gene signature

Q: What about the “Blocking of IL-22/IL-17A-induced responses (hyperplasia, perturbed differentiation markers, IL-8 secretion)” value [3] of the same molecule?
A: capable of blocking these responses

Q: With IL1b: interleukin as the molecule, how does the Score ([4]; 10 ng/ml) read?
A: 0.710 and 0.649

Q: What about the “Up Score” value ([4]; 10 ng/ml) of the same molecule?
A: 0.420 and 0.380

Q: “HK23/2 IL17: interleukin; proinflammatory cytokine produced by Th-17 cells” was tested. Which “Down Score” value ([5]; 200 ng/ml) did it give?
A: −0.151

Q: What about the Score ([5]; 200 ng/ml) of the same molecule?
A: 0.579

Q: What about the “Up Score” value ([5]; 200 ng/ml) of the same molecule?
A: 0.428

Q: What does the source list for `[O-]n1ccccc1=S.[O-]n1ccccc1=S.[Zn+2]` [ZPT, zinc salt of 1-hydroxy-2-pyrithione]?
A: Linkage to lipid-immune dandruff gene signature [2]: not in the list of instances strongly linked to the gene signature; Scalp gene expression profile shift (~3700 significantly altered genes, hierarchical clustering) [6]: expression shift toward the non-dandruff condition; Blocking of IL-22/IL-17A-induced responses (hyperplasia, perturbed differentiation markers, IL-8 secretion) [3]: capable of blocking these responses

Q: `O=C(O)Cc1cc(I)c(Oc2ccc(O)c(I)c2)c(I)c1` [Triac] was tested. Which “Score (connectivity score)” value ([1]; 10 μM, exposure time not given) did it give?
A: −0.53

Q: How did the “Score (connectivity score)” value (MCF7) turn out when `CN(CCOc1ccc(CC2SC(=O)NC2=O)cc1)c1ccccn1` (centres unmarked) [Rosiglitazone] was run?
A: −0.51

Q: With `CCC(=O)O[C@]1(C(=O)CCl)[C@@H](C)C[C@H]2[C@@H]3CCC4=CC(=O)C=C[C@]4(C)[C@@]3(F)[C@@H](O)C[C@@]21C` [Clobetasol Propionate] as the molecule, how does the “Blocking of IL-22/IL-17A-induced responses (hyperplasia, perturbed differentiation markers, IL-8 secretion)” value [3] read?
A: capable of blocking these responses

Q: How did the “Score (connectivity score)” value ([1]; 1 μM, 24hr (chip ID)) turn out when `CC(=O)N1CCN(c2ccc(OCC3COC(Cn4ccnc4)(c4ccc(Cl)cc4Cl)O3)cc2)CC1` (centres unmarked) [Ketoconazole] was run?
A: −0.58

Q: And the “Blocking of IL-22/IL-17A-induced responses (hyperplasia, perturbed differentiation markers, IL-8 secretion)” value [3]?
A: capable of blocking these responses

Q: For `c1cnc2c(c1)ccc1cccnc12` [1,10-phenanthroline], which “Blocking of IL-22/IL-17A-induced responses (hyperplasia, perturbed differentiation markers, IL-8 secretion)” value [3] is on record?
A: capable of blocking these responses

B1: IL22: interleukin; proinflammatory cytokine produced by Th-17 cells (protein, UniProt Q9GZX6 34-179, looked up)
Interleukin-22: APISSHCRLDKSNFQQPYITNRTFMLAKEASLADNNTDVRLIGEKLFHGVSMSERCYLMKQVLNFTLEEVLFPQSDRFQPYMQEVVPFLARLSNRLSTCHIEGDDLHIQRNVQKLKDTVKKLGESGEIKAIGELDLLFMSLRNACI
Q: For B1, which “Down Score” value ([5]; 200 ng/ml) is on record?
A: −0.214

Q: And the Score ([5]; 200 ng/ml)?
A: 0.573

Q: And the “Up Score” value ([5]; 200 ng/ml)?
A: 0.358

Q: And the Score ([4]; 20 ng/ml)?
A: 0.789 and 0.740 and 0.705

Q: What about the “Up Score” value ([4]; 20 ng/ml) of the same molecule?
A: 0.444 and 0.410 and 0.388

B2: IFNg: interferon (protein, UniProt P01579 24-161, looked up)
Interferon gamma: QDPYVKEAENLKKYFNAGHSDVADNGTLFLGILKNWKEESDRKIMQSQIVSFYFKLFKNFKDDQSIQKSVETIKEDMNVKFFNSNKKKRDDFEKLTNYSVTDLNVQRKAIHELIQVMAELSPAAKTGKRKRSQMLFRG
Q: How did the “Down Score” value ([5]; 20 ng/ml) turn out when B2 was run?
A: −0.102

Q: What about the Score ([5]; 20 ng/ml) of the same molecule?
A: 0.552

Q: What about the “Up Score” value ([5]; 20 ng/ml) of the same molecule?
A: 0.450

Q: And the Score ([4]; 10 ng/ml)?
A: 0.665 and 0.657

Q: And the “Up Score” value ([4]; 10 ng/ml)?
A: 0.420 and 0.431

B3: IL19: interleukin (protein, UniProt Q9UHD0 25-177, looked up)
Interleukin-19: LRRCLISTDMHHIEESFQEIKRAIQAKDTFPNVTILSTLETLQIIKPLDVCCVTKNLLAFYVDRVFKDHQEPNPKILRKISSIANSFLYMQKTLRQCQEQRQCHCRQEATNATRVIHDNYDQLEVHAAAIKSLGELDVFLAWINKNHEVMFSA
Q: B3 was tested. Which Score ([4]; 20 ng/ml) did it give?
A: 0.749 and 0.729 and 0.807

Q: What about the “Up Score” value ([4]; 20 ng/ml) of the same molecule?
A: 0.410 and 0.460 and 0.505

B4: IL24: interleukin (protein, UniProt Q13007 52-206, looked up)
Interleukin-24: QEFHFGPCQVKGVVPQKLWEAFWAVKDTMQAQDNITSARLLQQEVLQNVSDAESCYLVHTLLEFYLKTVFKNYHNRTVEVRTLKSFSTLANNFVLIVSQLQPSQENEMFSIRDSAHRRFLLFRRAFKQLDVEAALTKALGEVDILLTWMQKFYKL
Q: With B4 as the molecule, how does the Score ([4]; 20 ng/ml) read?
A: 0.833 and 0.829 and 0.801

Q: What about the “Up Score” value ([4]; 20 ng/ml) of the same molecule?
A: 0.485 and 0.517 and 0.461
